Measurements reported in patent US20240334934A1, “FUNGICIDE MIXTURE” (priority 2021, published 2024).

Key:
Assay type in all cases: cell-based
[1] = tested on: Gibberella zeae (Fusarium graminearum); experiment: microbe, parasite or virus in culture; settings: read-out: % Efficacy
[2] = tested on: Zymoseptoria tritici K6420; experiment: Efficacy of mixtures of streptimidone and CtmC, liquid culture in PDB, optical density 620 nm
[3] = tested on: Zymoseptoria tritici K6105; experiment: as above; settings: for Emax at 1.23 ppm: K6105, Streptimidone 1.23 ppm alone (CtmC 0); for Emax at 3.7 ppm: K6105, Streptimidone 3.70 ppm alone (CtmC 0); for Emax at 11.11 ppm: K6105, Streptimidone 11.11 ppm alone (CtmC 0); for Emax at 33.33 ppm: K6105, Streptimidone 33.33 ppm alone (CtmC 0)
[4] = tested on: Fusarium Virguliforme K6286; experiment: as above
[5] = tested on: Fusarium Virguliforme K6285; experiment: as above
[6] = tested on: Zymoseptoria tritici K6318; experiment: as above
Microdochium nivale = experiment: as above
[7] = Streptimidone 0.14 ppm alone (CtmC 0)
[8] = Streptimidone 0.41 ppm alone (CtmC 0)
[9] = Streptimidone 1.23 ppm alone (CtmC 0)
[10] = Streptimidone 3.70 ppm alone (CtmC 0)
[11] = Streptimidone 11.11 ppm alone (CtmC 0)
[12] = Streptimidone 33.33 ppm alone (CtmC 0)
[13] = Streptimidone 100 ppm alone (CtmC 0)

`C=C/C(C)=C/[C@H](C)C(=O)C[C@H](O)CC1CC(=O)NC(=O)C1` [Streptimidone] showed an Emax at 33.33 ppm [1] of 50%, an Emax at 100 ppm [1] of 63% and an Emax at 0.41 ppm ([2]; K6420, Streptimidone 0.41 ppm alone (CtmC 0)) of 7%. It also gave an Emax at 1.23 ppm ([2]; K6420, Streptimidone 1.23 ppm alone (CtmC 0)) of 17%, an Emax at 3.7 ppm ([2]; K6420, Streptimidone 3.70 ppm alone (CtmC 0)) of 32% and an Emax at 11.11 ppm ([2]; K6420, Streptimidone 11.11 ppm alone (CtmC 0)) of 48%. For the same compound, the Emax at 33.33 ppm ([2]; K6420, Streptimidone 33.33 ppm alone (CtmC 0)) was 67%, the Emax at 100 ppm ([2]; K6420, Streptimidone 100 ppm alone (CtmC 0)) was 83% and the Emax at 0.41 ppm ([3]; K6105, Streptimidone 0.41 ppm alone (CtmC 0), lower sub-table) was 7%. The Emax at 1.23 ppm ([3]; lower sub-table) was 17%, the Emax at 1.23 ppm ([3]; upper sub-table) was 27% and the Emax at 3.7 ppm ([3]; lower sub-table) was 32%. For the same compound, the Emax at 3.7 ppm ([3]; upper sub-table) was 39%, the Emax at 11.11 ppm ([3]; lower sub-table) was 48% and the Emax at 11.11 ppm ([3]; upper sub-table) was 59%. It also gave an Emax at 33.33 ppm ([3]; lower sub-table) of 67%, an Emax at 33.33 ppm ([3]; upper sub-table) of 81% and an Emax at 100 ppm ([3]; K6105, Streptimidone 100 ppm alone (CtmC 0), lower sub-table) of 83%. For the same compound, the Emax at 0.14 ppm [4, 7] was 8%, the Emax at 0.41 ppm [4, 8] was 16% and the Emax at 1.23 ppm [4, 9] was 14%. For the same compound, the Emax at 3.7 ppm [4, 10] was 16%, the Emax at 11.11 ppm [4, 11] was 16% and the Emax at 33.33 ppm [4, 12] was 30%. The Emax at 100 ppm [4, 13] was 47%, the Emax at 0.14 ppm [5, 7] was 10% and the Emax at 0.41 ppm [5, 8] was 21%. It also gave an Emax at 1.23 ppm [5, 9] of 13%, an Emax at 3.7 ppm [5, 10] of 18% and an Emax at 11.11 ppm [5, 11] of 18%. For the same compound, the Emax at 33.33 ppm [5, 12] was 26%, the Emax at 100 ppm [5, 13] was 53% and the Emax at 0.14 ppm [6, 7] was 0%. The Emax at 0.41 ppm [6, 8] was 0%, the Emax at 1.23 ppm [6, 9] was 0% and the Emax at 3.7 ppm [6, 10] was 3%. For the same compound, the Emax at 11.11 ppm [6, 11] was 8%, the Emax at 33.33 ppm [6, 12] was 18% and the Emax at 100 ppm [6, 13] was 44%. For the same compound, the Emax at 0.41 ppm (Microdochium nivale; [8]) was 0%, the Emax at 1.23 ppm (Microdochium nivale; [9]) was 0% and the Emax at 3.7 ppm (Microdochium nivale; [10]) was 5%. For the same compound, the Emax at 11.11 ppm (Microdochium nivale; [11]) was 8% and the Emax at 33.33 ppm (Microdochium nivale; [12]) was 22%.
